Active and inactive are the calls of the source.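 The calls were made as follows: active = concentration giving half-maximal inhibition at or below 20 micromolar; inactive = half-maximal concentration above 20 micromolar, or not dose tested.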

The subject of this experiment is Jurkat E6.1 viability, ATP luminescence, 48 h. As to the kind of experiment: Jurkat cell viability reduction – Jurkat E6.1, NIH starter set, primary screen (AID 364).
Take `N#CC1=C(SCC(=O)c2ccc(Cl)cc2)NC2=C(C(=O)CCC2)C1c1ccco1` (configuration not stated): the CC50 – broadly, the concentration at which the toxic effect on the cells reaches its halfway point – was 2.79 µM. Consider `C[C@H]1CCC/C=C/C2C[C@H](O)CC2[C@H](O)/C=C/C(=O)O1` (some centres not stated), for which the CC50 is 0.368 µM. For the compound `N#CC1=C(SCC(=O)c2ccc(Br)cc2)NC2=C(C(=O)CCC2)C1c1ccco1` (configuration not stated), the CC50 is 3.05 µM.

As to `CC(=O)O[C@@]12CO[C@@H]1C[C@H](O)[C@@]1(C)C(=O)[C@H](O)C3=C(C)[C@@H](OC(=O)[C@H](O)[C@@H](NC(=O)OC(C)(C)C)c4ccccc4)C[C@](O)([C@@H](OC(=O)c4ccccc4)[C@H]21)C3(C)C`, the CC50 was 0.0556 µM. For the compound `Cn1c(Cl)cnc1C1CC(=O)c2cc(Cl)ccc2O1` (configuration not stated), the CC50 was 7.3 µM. In the case of `CC(C)NCc1c(O)c(Br)cc2oc3c(c12)CCCC3`, the CC50 is > 20 µM (inactive). Regarding `CCc1cn([C@H]2C[C@H](O)[C@@H](CO)O2)c(=O)[nH]c1=O`, the CC50 is > 20 µM (inactive). Regarding `COc1cccc2c(=O)c(SC(F)(F)C(F)C(F)(F)F)c(C)[nH]c12` (configuration not stated), the CC50 is 5.13 µM. As for `CCN(CC)c1ccc(-c2nn3c(-c4cccnc4)nnc3s2)cc1`, the CC50 is 3.27 µM. For `CC(=O)/C(C#N)=C1\NC(=O)C(Cc2ccccc2Cl)S1` (configuration not stated), the CC50 was > 20 µM (inactive). Consider `COc1cc([C@@H]2c3cc4c(cc3[C@H](O)[C@H]3COC(=O)[C@H]23)OCO4)cc(OC)c1OC`, for which the CC50 is 0.0349 µM.

On to `COc1ccc(C(=O)C(CN2CCCC2)c2ccccc2)cc1` (configuration not stated), for which the CC50 is 7.21 µM. In the case of `COC(=O)Nc1nc2ccc(Sc3ccccc3)cc2[nH]1`, the CC50 is 0.574 µM. As for `COc1ccc(C2=Nn3c(nnc3-c3ccccc3)SC2)cc1OC`, the CC50 was 5.63 µM. As to `CC(=O)/C(C#N)=C1\NC(=O)C(Cc2ccccc2)S1` (configuration not stated), the CC50 was > 20 µM (inactive).

For the compound `CCc1nc(N)nc(N)c1-c1ccc(Cl)cc1`, the CC50 was 2.6 µM.

On to `Fc1ccc2[nH]c3c(N4CCN(Cc5ccc6c(c5)OCO6)CC4)ncnc3c2c1`, for which the CC50 is 2.71 µM. Regarding `N=c1c2c(-c3ccccc3)c(-c3ccccc3)n(Cc3ccccc3)c2ncn1CCCn1ccnc1`, the CC50 is 19.9 µM. As to `Cc1ccc2nc(NCc3ccccc3)[nH]c2c1`, the CC50 was 3.24 µM.

For the compound `CC(NC(=O)Nc1nnc(C(F)(F)F)s1)(C(F)(F)F)C(F)(F)F`, the CC50 is 2.59 µM. In the case of `CCOC(=O)CSC1=C(C#N)C(c2ccc3c(c2)OCO3)CC(=O)N1` (configuration not stated) it was 6.58 µM; in that of `COc1cccc(N2CCN(c3ncnc4c3[nH]c3ccc(F)cc34)CC2C)c1` (configuration not stated), 2.27 µM; in that of `Cc1ccc(NC(=O)CSc2nnc(-c3ccco3)c(-c3ccco3)n2)cc1`, 1.71 µM. Take `COc1cccc2c1C(=O)c1c(O)c3c(c(O)c1C2=O)C[C@@](O)(C(C)=O)C[C@@H]3O[C@H]1C[C@H](N)[C@H](O)[C@H](C)O1`: the CC50 was 0.151 µM.

Consider `COc1cccc(C2=CC(c3ccccc3)n3nnnc3N2)c1` (configuration not stated), for which the CC50 was 1.77 µM. Take `COc1ccc(C2=Nn3c(nnc3-c3ccccn3)SC2)cc1`: the CC50 is 4.78 µM.

As to `Cc1ccc(C(=O)CSC2=C(C#N)C(c3ccco3)C3=C(CCCC3=O)N2)cc1` (configuration not stated), the CC50 is 2.4 µM.

Consider `N#CC1=C(N)NC(SCc2ccc(F)cc2)=C(C#N)C12CCCCC2`, for which the CC50 is 8.19 µM.

As for `COc1ccc(Nc2cc(C)nc(-n3nc(C)cc3C)n2)cc1`, the CC50 was 0.188 µM. As for `CC(=O)O[C@H]1C(=O)[C@]2(C)[C@H]([C@H](OC(=O)c3ccccc3)[C@]3(O)C[C@H](OC(=O)[C@H](O)[C@@H](NC(=O)c4ccccc4)c4ccccc4)C(C)=C1C3(C)C)[C@]1(OC(C)=O)CO[C@@H]1C[C@@H]2O`, the CC50 was 0.0434 µM.

As to `c1cc2c(cc1C1=Nn3c(nnc3C3CCCCC3)SC1)OCO2`, the CC50 was 6.93 µM. With `CO[C@H]1C[C@@H]2CC[C@@H](C)[C@@](O)(O2)C(=O)C(=O)N2CCCC[C@H]2C(=O)O[C@H]([C@H](C)C[C@@H]2CC[C@@H](O)[C@H](OC)C2)CC(=O)[C@H](C)C=C(C)[C@@H](O)[C@@H](OC)C(=O)[C@H](C)C[C@H](C)C=CC=CC=C1C`, the CC50 is > 20 µM (inactive). As to `O=c1[nH]c(=O)n([C@H]2C[C@H](O)[C@@H](CO)O2)cc1F`, the CC50 was 2.73 µM. On to `CCCOc1ccc2nc(NC(=O)OC)[nH]c2c1`, for which the CC50 was 0.178 µM.

As for `CC1(c2ccccc2)NCCN2C(=O)CSC21` (configuration not stated), the CC50 is > 20 µM (inactive). Consider `CCCSc1ccc2nc(NC(=O)OC)[nH]c2c1`, for which the cytotoxic concentration (CC50) is 0.39 µM. Consider `CCOc1ccc(C2=Nn3c(nnc3-c3ccccc3OC)SC2)cc1`, for which the CC50 is 0.0267 µM.

`COc1ccc(OC)c(NS(=O)(=O)c2ccc(N3CCCC3=O)cc2)c1`: the CC50 is 0.193 µM. Consider `c1ccc2c(c1)CCN(c1ncnc3c1[nH]c1ccccc13)C2`, for which the cytotoxic concentration (CC50) was 1.55 µM. For the compound `CCCCCOc1ccc(C(=O)NCC(=O)NCC(=O)OCC)cc1`, the CC50 was > 20 µM (inactive).

In the case of `COC(=O)/C(=C1/Oc2cc(C)oc(=O)c2S1)C(F)(F)F`, the cytotoxic concentration (CC50) is 2.85 µM. With `COC(=O)CSc1nnc2n(-c3ccc(OC)cc3)c(=O)c3c4c(sc3n12)CCCCC4`, the CC50 was > 20 µM (inactive). For the compound `N#CC1=C2SCC(O)(c3ccccc3)N2C(=O)CC1c1ccccc1` (configuration not stated), the CC50 is 0.806 µM. For `N#CC1=C(SCC(=O)c2ccccc2)NC2=C(C(=O)CCC2)C1c1ccco1` (configuration not stated), the CC50 is 1.28 µM. Turning to `COC(=O)Nc1nc2ccc(C(=O)c3ccccc3)cc2[nH]1`, the CC50 is 0.229 µM. As for `CCC(NC(=O)Nc1nnc(C(F)(F)F)s1)(C(F)(F)F)C(F)(F)F`, the figure is 2.22 µM.

For the compound `c1coc(CNc2ncnc3ccccc23)c1`, the CC50 was 2.4 µM.

In the case of `COc1cccc(Cn2c(NCc3ccco3)nc3c2c(=O)n(C)c(=O)n3C)c1`, the CC50 is 2.55 µM.

In the case of `CC[C@H]1CN2CCc3cc(OC)c(OC)cc3[C@@H]2C[C@@H]1C[C@H]1NCCc2cc(OC)c(OC)cc21`, the 50% cytotoxic concentration (CC50) is 0.0582 µM. For the compound `Clc1ccc(-n2ncc3c(NCc4ccco4)ncnc32)cc1`, the CC50 is 3.88 µM. On to `COc1cc(C2C(C#N)=C(N)Oc3cc(N)ccc32)cc(OC)c1OC` (configuration not stated), for which the CC50 is 0.326 µM. Turning to `COc1ccc2c(c1OC)C(=O)O[C@@H]2[C@H]1c2c(cc3c(c2OC)OCO3)CCN1C`, the CC50 was > 20 µM (inactive). Turning to `Cc1cccc(-c2nnc3n2N=C(c2ccc(Br)cc2)CS3)c1`, the CC50 is > 20 µM (inactive). For the compound `CC[C@]1(O)CC2CN(CCc3c([nH]c4ccccc34)[C@@](C(=O)OC)(c3cc4c(cc3OC)N(C=O)[C@H]3[C@@](O)(C(=O)OC)[C@H](OC(C)=O)[C@]5(CC)C=CCN6CC[C@]43[C@@H]65)C2)C1` (some centres not stated), the CC50 was less than 0.003 µM. In the case of `COc1ccc2c(c1OC)C(=O)N1c3ccccc3C(=O)N(c3ccccc3F)C21` (configuration not stated) it was > 20 µM (inactive); in that of `CC[C@]1(O)C[C@@H]2CN(CCc3c([nH]c4ccccc34)[C@@](C(=O)OC)(c3cc4c(cc3OC)N(C)[C@H]3[C@@](O)(C(=O)OC)[C@H](OC(C)=O)[C@]5(CC)C=CCN6CC[C@]43[C@@H]65)C2)C1`, 0.0136 µM; in that of `CC(=O)OC[C@H]1O[C@@H](n2ncc(=O)[nH]c2=O)[C@H](OC(C)=O)[C@@H]1OC(C)=O`, > 20 µM (inactive).

As for `COc1ccc(CCn2c(=N)c(C#N)cc3c(=O)n4ccccc4nc32)cc1`, the CC50 is > 20 µM (inactive).

As to `Nc1nc(Cl)nc2c1ncn2[C@H]1C[C@H](O)[C@@H](CO)O1`, the CC50 is 1.81 µM. As for `COc1cccc(NC(=O)CSC2=C(C#N)C(c3ccco3)C3=C(CCCC3=O)N2)c1` (configuration not stated), the figure is 4.73 µM; as for `COc1cccc2c1C(=O)c1c(O)c3c(c(O)c1C2=O)C[C@@](O)(C(=O)CO)C[C@@H]3O[C@H]1C[C@H](N)[C@H](O)[C@H](C)O1`, 0.261 µM; as for `COc1ccccc1-c1nnc2n1N=C(c1ccc(O)c(O)c1)CS2`, 0.0582 µM.

The record behind these values is PubChem BioAssay AID364 (The Scripps Research Institute Molecular Screening Center, 2006).
